A short description of experiment [1]: Quantitation of calcium salt specificity by UTE MRI. To be noted: 10 μM in PBS, 1 h at RT, UTE MRI before and after washing crystals. The protocol:
(§1) MRI can be performed on a 1.5 T GE Signa clinical scanner equipped with a custom low-pass birdcage coil (10 cm length, 6 cm diameter). The custom UTE sequence is based on previous work in the field {Irarrazabal, 1995; Song, 1998}.
5 mg of HA or the phosphate, oxalate, carbonate, or pyrophosphate salts of calcium is placed in 1.5 ml Eppendorf tube and is incubated with 10 μM [Gd^3+-DOTA]-Thr-Pam-Na in 50 μL PBS for 1 h at RT with continuous vortexing. UTE MRI acquisition is performed pre- and post-washing with 4×500 μL PBS using TR=200 msec and TE=100 μsec. Other acquisition parameters includes FOV=9 cm, slice thickness=10 mm, matrix size=256×256, NEX=2.

The nature of experiment [2]: In-vivo UTE MRI of subcutaneously implanted HA crystals. The note with it: mice, intravenous injection, minimum of 4 h of clearance; compared with microCT. As to the method:
as §1
50 mg of HA crystals is taken in 300 μL PBS, is implanted subcutaneously at right flank of anesthetized mice. UTE MRI is taken after implantation of HA crystal using TR/TE=200 msec/100 μsec, FOV=6 cm, slice thickness=5 mm, matrix size=256×256. 4 μmol of [Gd^3+-DOTA]-Thr-Pam-Na in 300 μL saline is injected intravenously. After 4 h of clearance, an UTE MRI is taken with same parameters.

A short description of experiment [3]: Contrast agent concentration and TR dependence of UTE MRI signals. The note with it: 5 mg HA, 1 h at RT, washed with PBS, UTE MRI TE=100 μsec. The protocol: as §1
5 mg HA is placed in 1.5 mL plastic Eppendorf tubes, then 0, 0.1, 1, 10, or 100 μM [Gd^3+-DOTA]-Thr-Pam-Na in 50 μL PBS is added to each. After vortexing 1 h at RT, the crystals are washed with 4×500 μL PBS and UTE MRI acquisition is performed using a fixed TE=100 μsec and varying TR of 17, 50, 200, 500 msec. Other acquisition parameters includes FOV=11 cm, slice thickness=10 mm, matrix size=256×256, NEX=2.

Experiment [4] is described as follows: In-vitro UTE and GRE MRI of HA crystals bound by contrast agent. The note with it: short incubation with HA crystals in PBS, UTE sequence TR=200 msec, TE=100 μsec. As to the method:
as §1
1 mM of [Gd^3+-DOTA]-Thr-Pam-Na is added to 5 mg of HA crystals in 50 μL PBS (pH 7.4) and is vortexed for 1 h at RT in a 1.5 mL Eppendorf tube. 5 mg HA in 1 mM of [Gd^3+-DOTA]-Thr and 50 μL PBS is used as a control. MRI, pre- and post-washing with 4×500 μL PBS, are acquired using an UTE sequence (TR=200 msec, TE=100 μsec) or conventional GRE sequence (TR=200 msec, TE=1.8 msec). Other acquisition parameters includes FOV=6 cm, slice thickness=5 mm, matrix size=256×256, NEX=4.

These results are taken from patent US20130296539A1, “MAGNETIC RESONANCE IMAGING AGENTS FOR CALCIFICATION” (priority 2012, published 2013).

On to [Gd^3+-DOTA]-Thr-Pam-Na, for which the “Specificity for HA over other calcium salts” value in experiment [1] was “more than three fold higher specificity for HA over other calcium salts”. The “In-vivo detection of HA crystals by UTE MRI” value in experiment [2] is “UTE MRI provides a sensitive detection of HA crystals in-vivo”. The “Lowest incubation concentration resulting in detectable signal enhancement” value in experiment [3] came out at 1 µM. For the same substance, the “Detection of HA crystals by UTE MRI” value in experiment [4] is “able to detect HA crystals with high sensitivity”.
